Patent US20260115162A1, “COMPOSITION OR ASSOCIATION OF COMPOUNDS PREFERABLY FOR USE IN THE TREATMENT OF NERVOUS DISEASES IN PARTICULAR NEURODEGENERATIVE DISEASES, METHOD FOR THE PREPARATION OF SUCH COMPOSITION OR ASSOCIATION OF COMPOUNDS AND USES THEREOF” (PHARMACEUTICA SAN MARCO S.R.L., priority 2022, published 2026)
Entries after “also recorded” stand apart in the source; their conditions may differ. Read-outs that look alike come from different tables or passages of the source.

Tests used:
[1] = Pharmacokinetics of βBA and AKBA via os in healthy volunteers, fasted and hyperlipidic meal (Sterk V et al. 2004); format: in vivo, humans; details: healthy volunteers
From the text: Indeed, βBA has a concentration in the blood: • at least 6 times higher than AKBA both in the fasting condition and with a hyperlipidic meal; • increased by 6 times after hyperlipidic meal so that the plasma/os ratio passes from 0.09 to 0.55.

[2] = Plasma and brain levels of βBA and AKBA via os in mice (Gerbeth K et al. 2013); format: in vivo
From the text: βBA appears not to undergo blood-brain barrier. According to the data of Gerbeth K et al. 2013, brain levels of AKBA were very low, resulting 0.4 per AKBA in the brain/plasma ratio (but 0.81 according to Weber C C et al. 2006). In contrast, the § BA concentration in the brain was even higher than that found in the blood with 32% increase (See Table 1).

[3] = healthy volunteers, via os, cited from earlier work
[4] = cited from earlier work
[5] = cited from earlier work; remark: listed apart in the source
[6] = Weber C C et al. 2006; cited from earlier work
[7] = mice; cited from earlier work
[8] = cited from earlier work; remark: listed apart in the source
intact mice = assay: Behavioral tests on intact animals (open field, freezing); format: in vivo; details: for lowest dose showing antidepressant effects: intact mice, preliminary experiments (unpublished observations); for effect in behavioral tests, individually: mouse, in vivo
Method: The trials were performed at the Department of Clinical and Experimental Medicine of the University of Foggia according to the following rationale. • 1. In the present mouse model of beta-amyloid toxicity, using validated tests in mice, we evaluated the behaviors: • a. antidepressant: Tail Suspension Test (TST); Forced Swimming Test (FST); Splash Test (ST) with latency time (sec) and self-care (sec) measurement. • b. antianxiety: Open Field Test with measurement of distance traveled (m), time spent in the wall (sec), time spent in the center (sec), center entries (n); Freezing Test (sec). • c. on memory, learning, coordination of motor skills, fear conditioning: Rotarod Test with measure of Latency to Fall, repeated after training to evaluate motor learning. • 2. We tested the protective effects with the following procedure: • a. individually: βCP, FE, βBA, DHA and HA4; • b. in association with pairs: βCP+HA4, FE+HA4, βBA+HA4, FE+βCP, βBA+FE, βBA+βCP. • c. in association, all four together: βCP+FE+βBA+HA4 • d. versus control (SHAM), • e. using the mouse model of an Aβ-induced depressive phenotype. • 3. These behavioral tests were integrated with serotonin, dopamine, noradrenaline and their metabolites prefrontal cortex and hippocampus measurement. • 4. Furthermore, we evaluated the cortical and hippocampal glutamate (GLU) levels in mice treated with AP and subsequently we tested the ability of βCP, FE, βBA and HA4, to modulate this neurochemical parameter.
βCP, FE e βBA (Merck, Cayman Chemical Company) was dissolved in sunflower oil, this vehicle was chosen in order to maintain a better tasting and higher density of the final solution thus reducing reflux through the digestive tract.
(§1) Ten μl of the solution (or vehicle alone) were administered sublingually to mice. Brain βCP, FE e βBA were quantified in a separate subset of mice at 5, 15 and 30 min after their administration.
Open Field Test. Mice were placed in an open field arena and allowed to explore for 30 min [Lama A et al. 2021]. After each trial, the arena floor was cleaned with 70% ethanol to avoid inter-assay bias. The movements of mice were video recorded and analyzed by ANY-maze tracking software (Ugo Basile-Varese, Gemonio, Italy). Locomotion was evaluated through total crossing measurements.

kynurenine (KYN) = assay: Kynurenine levels in mice treated with Aβ icv (FIG. 6); format: in vivo; details: prefrontal cortex and hippocampus, HA4 0.2 mg/mouse
Method: (§2) The Aβ1-42, obtained from Tocris (Bristol, UK), was dissolved in sterile double-distilled pyrogenic-free water, as vehicle, to obtain a final concentration 4 μM [Colaianna M et al. 2010]. Mice were anesthetized with a solution (0.85 in ml/kg, i.p.), containing ketamine (Sigma Aldrich, Milan, Italy, 100 mg/10 ml), xylazine (Sigma Aldrich, Milan, Italy, 100 mg/10 ml) and acepromazine (prequillant, ATI Azienda Terapeutica Veterinaria Srl, 10 mg/10 ml) dissolved in saline solution. Animals were secured in a stereotaxic frame (David Kopf Instruments, Tujunga, CA, USA) and the peptide injection was accomplished in the lateral ventricle of mice at the following coordinates: AP=−0.2, ML=+1 e DV=2 relative to bregma, according to the atlas of Paxinos and Franklin [Paxinos G and Franklin K B J 2019]. […] At the time of dissection, the correct needle track was assessed. […]
(§3) 5-HT, noradrenaline (NA), and KYN levels were measured in the PFC and HIPP of mice by HPLC coupled with an electrochemical detector (Ultimate ECD, Thermo Scientific Dionex, Milan, Italy) as already reported [Francavilla M et al. 2012, Morgese M G et al. 2016]. […] GLU concentrations were determined by HPLC coupled with fluorescence detection (emission length 460 nm; excitation length 340 nm), as previously published [Francavilla M et al. 2012]. […]

glutamate (GLU) = assay: Glutamate levels in mice treated with Aβ icv (FIG. 7); format: in vivo; details: after 7 days
Method: as §2, §3

CD11b = CD11b protein levels in mice treated with Aβ icv, Western blotting (FIG. 8); format: in vivo; details: PFC and HIPP, HA4 0.2 mg/mouse
Method: (§4) The total amount of proteins was measured in homogenates by using Pierce BCA Assay (Thermo Fisher Scientific, Cleveland, OH, USA). […] After HRP-conjugated specific antibody incubation, ECL reagent (Bio-Rad Laboratories Inc., Segrate (MI), Italy) was added to the immune complex and chemiluminescence was detected by ChemiDoc MP system (Bio-Rad Laboratories Inc., Segrate (MI), Italy). Optical densities of the bands were measured using Image J software (http://rsb.info.nih.gov/ij/ accessed on 15 Mar. 2021) and normalized against bands relative to -actin (1:5,000, Abcam, Cambridge, UK).

GFAP = GFAP protein levels in mice treated with Aβ icv, Western blotting (FIG. 9); format: in vivo; details: PFC and HIPP, HA4 0.2 mg/mouse
Method: as §4

mice treated with Aβ icv = assay: Splash test in SHAM mice and mice treated with Aβ icv (FIG. 4); format: in vivo; details: after 7 days, HA4 200 μg, βCP 50 μg, βBA 100 μg, FE 50 μg sublingually
Method: The Aβ1-42, obtained from Tocris (Bristol, UK), was dissolved in sterile double-distilled pyrogenic-free water, as vehicle, to obtain a final concentration 4 μM [Colaianna M et al. 2010]. Mice were anesthetized with a solution (0.85 in ml/kg, i.p.), containing ketamine (Sigma Aldrich, Milan, Italy, 100 mg/10 ml), xylazine (Sigma Aldrich, Milan, Italy, 100 mg/10 ml) and acepromazine (prequillant, ATI Azienda Terapeutica Veterinaria Srl, 10 mg/10 ml) dissolved in saline solution. […] At the time of dissection, the correct needle track was assessed. […]
as §1
All behavioral experiments were conducted at 5 or 30 min after sublingual administrations of βBA or vehicle in mice treated with SHAM or AP. Based on the observed behavioral results, neurochemical and biochemical quantifications were performed 30 min after administration of βCP, FE, and βBA or vehicle in SHAM- or Aβ-treated mice.
Splash test. […] The test was videotaped and later an observer, blind to the trial, scored for latency to the first grooming event and duration of self-care behavior during the period of the test (5 min).

dopamine (DA) = assay: Dopamine (DA) levels in Aβ icv-treated mice (FIG. 5c); format: in vivo; details: HIPP
[9] = in vivo; cited from earlier work
[10] = cited from earlier work; remark: listed apart in the source
[11] = mice, cited from earlier work
[12] = intact animals, hyaluronic acid only (FIG. 3)

Molecule: CC(=O)O[C@@H]1CC[C@@]2(C)[C@@H](CC[C@]3(C)[C@@H]2C(=O)C=C2[C@@H]4[C@@H](C)[C@H](C)CC[C@]4(C)CC[C@]23C)[C@@]1(C)C(=O)O [AKBA, acetyl-11-keto-beta-boswellic acid]
- Δos/plasma ([1]; fasted conditions): 68 fasted
- Δos/plasma ([1]; hyperlipidic fed conditions): 15 hyperlipidic
- Δos/brain [2]: 204
- Δos/plasma [2]: 82
- Δplasma/brain [2]: 2.5
- concentration in the plasma ([3]; fasted conditions): 6 fasted ng/g o ng/ml
- concentration in the plasma ([3]; hyperlipidic fed conditions): 28 hyperlipidic ng/g o ng/ml
- blood concentration ([4]; 80 mg AKBA to 13 patients, found in only one of them): 15.5 ng/mL
- concentration in the plasma ([4]; patients, via os): 0-15 ng/g o ng/ml
- brain/plasma ratio ([5]; Gerbeth K et al. 2013): 0.4
- reduction of blood concentration compared to the dose introduced orally ([5]; mice, via os, intestinal mucosa to blood): 80 times
- concentration in the brain ([5]; mice, via os): 37.5 ng/g o ng/ml
- concentration in the plasma ([5]; mice, via os): 93 ng/g o ng/ml
- reduction of concentration when crossing the blood-brain barrier ([5]; mice): more than twice
- brain/plasma ratio [6]: 0.81

Molecule: CC/C=C\C/C=C\C/C=C\C/C=C\C/C=C\C/C=C\CCC(=O)O [DHA, docosahexaenoic acid]
- safe dose [7]: ≤ 3.2 g/kg/day
- harmless dose ([8]; adult humans): at least 7.5 g/day
- safe dose ([8]; children): at least 315 mg/day

Molecule: CC1=CC=C[C@]2(C)Cc3occ(C)c3C[C@@H]12 [FE, furanoeudesma-1,3-diene]
- lowest dose showing antidepressant effects (intact mice): 5 mg/kg
- effect in behavioral tests, individually (intact mice): antidepressant and anxiolytic effect

Molecule: CC(=O)N[C@H]1[C@H](O[C@H]2[C@H](O)[C@@H](O)[C@H](O[C@H]3[C@H](O)[C@@H](CO)OC(O)[C@@H]3NC(C)=O)O[C@@H]2C(=O)O)O[C@H](CO)[C@@H](O)[C@@H]1O[C@@H]1O[C@H](C(=O)O)[C@@H](O)[C@H](O)[C@H]1O (stereo partly shown) [HA4, hyaluronic acid HA4 tetrasaccharide]
- freezing (intact mice; [12]): clear anxiolytic and antidepressant effect
- locomotor activity (intact mice; [12]): does not create deficits in the animal's locomotor activity
- effect in behavioral tests, individually (intact mice): antidepressant and anxiolytic effect
- Kynurenine levels (kynurenine (KYN)): significant reduction
- Glutamate levels (glutamate (GLU)): increase in glutamate
- CD11b protein levels (CD11b): Significant reduction of CD11b in both PFC and HIPP
- GFAP protein levels (GFAP): significant reduction; also recorded: removes GFAP alterations in both PFC and HIPP

Molecule: C=C1CC/C=C(\C)CC[C@@H]2[C@@H]1CC2(C)C [βCP, β-caryophyllene]
- lowest dose showing antidepressant effects (intact mice): 5 mg/kg
- effect in behavioral tests, individually (intact mice): antidepressant and anxiolytic effect
- Splash test latency time (antidepressant effect) (mice treated with Aβ icv): antidepressant effect
- Dopamine (DA) levels (dopamine (DA)): increase in dopaminergic activity in HIPP
- toxic dose (category 5 substance, OECD guidelines) [9]: greater than 2,000 mg/kg
- pathological changes ([10]; mice, 100 mg/kg i.p.): no evidence of pathological changes
- LD50 ([10]; mouse, in vivo, ip): 316 mg/kg

Molecule: Hyaluronic acid
- LD50 ([11]; intraperitoneum): 1,500 mg/kg
- LD50 ([11]; subcutaneous): > 4,000 mg/kg
- LD50 ([11]; via os): > 2,400 mg/kg
